In ChEMBL document CHEMBL3822430, “Discovery of pyrido[3,4-g]quinazoline derivatives as CMGC family protein kinase inhibitors: Design, synthesis, inhibitory potency and X-ray co-crystal structure” (Eur J Med Chem, 2016) one finds IC50 data, which are given here for three compounds.

Assay [1] has as its target Dual specificity tyrosine-phosphorylation-regulated kinase 1A (Rattus norvegicus, UniProt Q63470). Description: Inhibition of GST-tagged rat recombinant DYRK1A expressed in Escherichia coli using myelin basic protein as substrate incubated for 30 mins in presence of [gamma-33 ATP] by liquid scintillation counting analysis.
The target of assay [2] is Cyclin-dependent kinase 5/CDK5 activator 1 (Homo sapiens, UniProt Q00535). The assay is described as follows: Inhibition of GST-tagged human recombinant CDK5/p25 expressed in Escherichia coli using histone H1 as substrate incubated for 30 mins in presence of [gamma-33 ATP] by liquid scintillation counting analysis.
Sequence of Cyclin-dependent kinase 5/CDK5 activator 1 (Q00535 whole entry): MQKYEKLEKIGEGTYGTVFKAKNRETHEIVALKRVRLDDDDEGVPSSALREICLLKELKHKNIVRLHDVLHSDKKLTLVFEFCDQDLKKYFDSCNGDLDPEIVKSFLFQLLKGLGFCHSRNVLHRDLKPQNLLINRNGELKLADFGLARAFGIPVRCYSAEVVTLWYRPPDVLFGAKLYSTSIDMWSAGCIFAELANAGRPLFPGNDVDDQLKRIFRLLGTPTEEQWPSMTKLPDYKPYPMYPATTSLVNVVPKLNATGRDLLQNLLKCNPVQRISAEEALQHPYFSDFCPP
Sequence of Cyclin-dependent kinase 5/CDK5 activator 1 (Q15078 whole entry, further chain): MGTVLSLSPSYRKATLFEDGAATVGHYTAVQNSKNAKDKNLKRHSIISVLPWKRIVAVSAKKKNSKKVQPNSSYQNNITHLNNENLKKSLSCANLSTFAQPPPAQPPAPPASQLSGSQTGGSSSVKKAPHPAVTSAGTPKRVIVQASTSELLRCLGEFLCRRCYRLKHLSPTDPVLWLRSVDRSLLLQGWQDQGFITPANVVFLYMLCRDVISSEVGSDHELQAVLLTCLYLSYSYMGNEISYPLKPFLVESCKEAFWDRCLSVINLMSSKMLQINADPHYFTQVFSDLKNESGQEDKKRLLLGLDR
Assay [3] in a line: Inhibition of porcine brain CK1 delta/epsilon using CK-S as substrate incubated for 30 mins in presence of [gamma-33 ATP] by liquid scintillation counting analysis. On the set-up: species or system Sus scrofa.
The target of assay [4] is Glycogen synthase kinase-3 (Sus scrofa, UniProt B2LUN4+I6LNT8). The assay is described as follows: Inhibition of porcine brain GSK3alpha/beta using GS-1 as substrate incubated for 10 mins in presence of [gamma-32 ATP] by liquid scintillation counting analysis.
Assay [5] deals with Dual specificity protein kinase CLK1 (Homo sapiens, UniProt P49759). Description: Inhibition of GST-tagged human recombinant CLK1 expressed in Escherichia coli using RS peptide as substrate.
Sequence of Dual specificity protein kinase CLK1 (P49759 whole entry): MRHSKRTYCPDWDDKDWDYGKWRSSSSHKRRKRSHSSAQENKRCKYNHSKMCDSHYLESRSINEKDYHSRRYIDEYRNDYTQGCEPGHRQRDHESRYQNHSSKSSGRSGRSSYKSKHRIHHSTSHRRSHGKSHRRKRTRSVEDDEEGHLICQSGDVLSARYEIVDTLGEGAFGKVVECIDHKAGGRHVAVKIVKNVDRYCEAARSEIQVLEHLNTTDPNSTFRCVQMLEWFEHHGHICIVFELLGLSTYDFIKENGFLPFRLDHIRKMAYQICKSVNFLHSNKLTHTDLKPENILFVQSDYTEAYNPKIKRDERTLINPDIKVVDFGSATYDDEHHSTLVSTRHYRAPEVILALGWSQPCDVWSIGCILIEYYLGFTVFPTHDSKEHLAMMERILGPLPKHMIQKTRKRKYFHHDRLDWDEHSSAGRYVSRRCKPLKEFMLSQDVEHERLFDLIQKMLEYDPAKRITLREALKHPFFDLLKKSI

SMILES strings stand for the structures.

Take `Nc1ncc2cc3cnccc3c(N)c2n1`: the IC50 in assay [1] is 28 nM; in assay [2], 4800 nM; in assay [3], 5800 nM; in assay [4], 9100 nM; in assay [5] it was 41 nM.

For `Nc1ncc2cc3cnccc3cc2n1`, the IC50 in assay [1] was 180 nM; in assay [2], over 10000 nM; in assay [3], 800 nM; in assay [4], over 10000 nM; in assay [5] it was 190 nM.

With `Nc1ncc2cc3cnccc3c([N+](=O)[O-])c2n1`, the IC50 was 620 nM in assay [1]; over 10000 nM in assay [2]; 780 nM in assay [3]; 2200 nM in assay [4]; 69 nM in assay [5].
